From patent US20200289425A1, “CARBON DOT LIPOSOMES AND USES THEREOF” (National Taiwan University, priority 2017, published 2020)

Assays:
[1] = Degradation of drugs, standing in water for 48 hrs (HPLC or ICP MS); type: physicochemical; details: standing for 48 hrs
Protocol: In this example, the degradation of drug molecules encapsulated in the drug containing vesicles and that of free drugs were investigated. To this purpose, the drug containing vesicles of examples 1.2 or 1.3 or the free drug were placed in water, and let standing for 48 hrs, then the amounts of each drugs in the water were measured by HPLC or ICP MS.

[2] = tested on: A375.S2 cells; test: Cancer cell growth, Alamar Blue assay, A375; type: cell-based; details: A375, 48 hr culture
From the text: (§1) Cell lines and cell culture. A549, Hela, MCF-7, Huh7, C2BBe1, BxPC-3, A375.S2, CCRF-CEM, TrampC1 and NIH 3T3 cells were obtained from the American Type Culture Collection (ATCC; Manassas, Va., USA). A549, Hela, Huh7, A375.S2, TrampC1, and NIH 3T3 cells were maintained in Dulbecco's minimal essential medium (DMEM) supplemented with 1.5 g/L sodium bicarbonate,10% fetal bovine serum (FBS), 1.0% antibiotic-antimycotic, L-glutamine (2.0×10^−3 M), and 1.0% nonessential amino acids. MCF-7, BxPC-3 and CCRF-CEM cells were cultured in Roswell Park Memorial Institute (RPMI) medium supplemented with 10% FBS, and 1.0% antibiotic-antimycotic. C2BBe1 cells were grown in DMEM 1.5 g/L sodium bicarbonate, 1.0% antibiotic-antimycotic, L-glutamine (2.0×10^−3 M), and 1.0% nonessential amino acids, 10 mg/L human holo-transferrin, and 10% fetal bovine serum. The cell number and viability of the cells were determined by the trypan blue exclusion method and Alamar Blue assay, respectively.
(§2) The assay is designed to measure quantitatively the proliferation of cell by use of a fluorometric/colorimetric growth indicator based on detection of metabolic activity. Specifically, the alamar blue system incorporates an oxidation-reduction (REDOX) indicator that both fluoresces and changes color in response to chemical reduction of growth medium resulting from cell growth. As cells being tested grow, innate metabolic activity results in a chemical reduction of the system. Continued growth maintains a reduced environment while inhibition of growth maintains an oxidized environment. Reduction related to growth causes the REDOX indicator to change from oxidized (non-fluorescent, blue) form to reduced (fluorescent, red) form.
(§3) Cell viability was determined by Alamar Blue assay in accordance with the manufacturer's protocols.

[3] = tested on: colon cancer cells C2BBE1; test: Cancer cell growth, Alamar Blue assay, C2BBE1; type: cell-based; details: C2BBE1, 48 hr culture
From the text: as §1, §2, §3

[4] = tested on: lung cancer cells A549; test: Cancer cell growth, Alamar Blue assay, A549; type: cell-based; details: A549, 48 hr culture
From the text: as §1, §2, §3

[5] = tested on: cervical cancer cells Hela; test: Cancer cell growth, Alamar Blue assay, HeLa; type: cell-based; details: 48 hr culture
From the text: as §1, §2, §3

[6] = tested on: hepatoma cells Huh7; test: Cancer cell growth, Alamar Blue assay, Huh7; type: cell-based; details: Huh7, 48 hr culture
From the text: as §1, §2, §3

[7] = tested on: pancreatic cancer cells BxPC3; test: Cancer cell growth, Alamar Blue assay, BxPC3; type: cell-based; details: BxPC3, 48 hr culture
From the text: as §1, §2, §3

[8] = tested on: breast cancer cells MCF7; test: Cancer cell growth, Alamar Blue assay, MCF7; type: cell-based; details: MCF7, 48 hr culture
From the text: as §1, §2, §3

[9] = free drug; cited from earlier work

| SMILES | Percentage of drugs remained un-degraded [1] [%] | IC50 ([2]; A375-S2) [µM] | IC50 ([3]; Homo sapiens) [µM] | IC50 ([4]; Homo sapiens) [µM] | IC50 ([5]; Homo sapiens) [µM] | IC50 ([6]; Homo sapiens, Huh-7) [µM] | IC50 ([7]; Homo sapiens, BXPC-3) [µM] | IC50 ([8]; Homo sapiens) [µM] | IC50 [2] [µM] | IC50 [3] [µM] | IC50 [4] [µM] | IC50 [5] [µM] | IC50 [6] [µM] | IC50 [7] [µM] | IC50 [8] [µM] | Solubility of the anti-cancer drug [9] |
| --- | --- | --- | --- | --- | --- | --- | --- | --- | --- | --- | --- | --- | --- | --- | --- | --- |
| N.N.[Cl][Pt][Cl] [Cisplatin] |  |  |  |  |  |  |  |  | 9.2 | 11 | 6.5 | 3.1 | 6.3 | 4.8 | 33 |  |
| CC(=O)O[C@H]1C(=O)[C@@]2(C)[C@H]([C@H](OC(=O)c3ccccc3)[C@]3(O)C[C@H](OC(=O)[C@H](O)[C@@H](NC(=O)c4ccccc4)c4ccccc4)C(C)=C1C3(C)C)[C@]1(OC(C)=O)CO[C@@H]1C[C@@H]2O [Paclitaxel] |  |  |  |  |  |  |  |  |  |  |  |  |  |  |  | 5.6 mg/L |

More lines, main results first:

| Percentage of drugs remained un-degraded [1] [%] | IC50 ([2]; A375-S2) [µM] | IC50 ([3]; Homo sapiens) [µM] | IC50 ([4]; Homo sapiens) [µM] | IC50 ([5]; Homo sapiens) [µM] | IC50 ([6]; Homo sapiens, Huh-7) [µM] | IC50 ([7]; Homo sapiens, BXPC-3) [µM] | IC50 ([8]; Homo sapiens) [µM] | SMILES | IC50 [2] [µM] | IC50 [3] [µM] | IC50 [4] [µM] | IC50 [5] [µM] | IC50 [6] [µM] | IC50 [7] [µM] | IC50 [8] [µM] | Solubility of the anti-cancer drug [9] |
| --- | --- | --- | --- | --- | --- | --- | --- | --- | --- | --- | --- | --- | --- | --- | --- | --- |
| 48.5 | 750 | 1.6 | 1.8 | 1.3 | 0.7 | 0.08 | 0.1 | CC(C)C[C@H](NC(=O)[C@H](CCc1ccccc1)NC(=O)CN1CCOCC1)C(=O)N[C@@H](Cc1ccccc1)C(=O)N[C@@H](CC(C)C)C(=O)[C@@]1(C)CO1 [Carfilzomib] |  |  |  |  |  |  |  |  |
| 83.6 | 29 | 100 | 1 | 0.67 | 0.01 | 4.7 | 6.3 | CC(=O)O[C@@]12CO[C@@H]1C[C@H](O)[C@@]1(C)C(=O)[C@H](O)C3=C(C)[C@@H](OC(=O)[C@H](O)[C@@H](NC(=O)OC(C)(C)C)c4ccccc4)C[C@@](O)([C@@H](OC(=O)c4ccccc4)[C@H]21)C3(C)C [Docetaxel] |  |  |  |  |  |  |  | 0.27 mg/L |
| 69.5 | 0.75 | 13 | 0.04 | 1.7 | 0.49 | 0.58 | 2 | COc1cccc2c1C(=O)c1c(O)c3c(c(O)c1C2=O)C[C@@](O)(C(=O)CO)C[C@@H]3O[C@H]1C[C@H](N)[C@H](O)[C@H](C)O1 [Doxorubicin] |  |  |  |  |  |  |  | 2,600 mg/L |
| 58.8 | 66 | 170 | 17 | 94 | 1 | 51 | 48 | Nc1ccn([C@@H]2O[C@H](CO)[C@@H](O)C2(F)F)c(=O)n1 [Gemcitabine] |  |  |  |  |  |  |  | 51,000 mg/L |
